Active and inactive are the calls of the source. No cut-off for these calls is given here.
What was measured:
Splenocyte [1] = experiment: Cytotoxicity in wild-type C57BL/6JNarl mouse splenocytes assessed as reduction in cell viability at 25 uM by MTT assay; assay type: toxicity, cell-based
HEK293 = experiment: Cytotoxicity in human HEK293 cells assessed as reduction in cell viability at 25 uM by MTT assay; assay type: toxicity, cell-based; details: hek293, 25 µM
Splenocyte [2] = experiment: Immunostimulatory activity in MyD88 knockout C57BL/6JNarl mouse splenocytes assessed as increase in IFN-gamma expression level at 10 to 25 uM incubated for 48 hrs by ELISA; assay type: functional, cell-based; details: dose 10-25 µM
Mus musculus [3] = experiment: Immunostimulatory activity in C57BL/6JNarl mouse assessed as increase in IFN-gamma expression level in serum at 20 microg/g, ip and measured after 18 hrs by ELISA; assay type: functional, organism-based; details: dose 20.0 µg/g
Splenocyte [4] = experiment: Immunostimulatory activity in MyD88 knockout C57BL/6JNarl mouse splenocytes assessed as increase in IL-6 expression level at 10 to 25 uM incubated for 48 hrs by ELISA; assay type: functional, cell-based; details: dose 10-25 µM
Mus musculus [5] = experiment: Immunomodulatory activity in OVA-sensitized asthmatic BALB/c mouse model assessed as reduction in IL-4 expression level in lung at 20 microg/g, ip administered after day 14 OVA sensitization by ELISA; assay type: functional, organism-based; details: dose 20.0 µg/g
PBMC [6] = experiment: Immunostimulatory activity in human PBMC cells assessed as increase in IFN-gamma expression level at 10 to 25 uM by ELISA; assay type: functional, cell-based; details: dose 10-25 µM
Splenocyte [7] = experiment: Immunostimulatory activity in wild-type C57BL/6JNarl mouse splenocytes assessed as increase in IFN-gamma expression level at 10 to 25 uM incubated for 48 hrs by ELISA; assay type: functional, cell-based; details: dose 10-25 µM
[8] = molecular target: Toll-like receptor 4 (Homo sapiens) (UniProt O00206); experiment: Activation of TLR4 signaling in human HEK293 cells expressing human MD-2 and CD14 assessed as IL-8 expression level at 10 to 25 uM incubated for 24 hrs by ELISA; assay type: cell-based; details: dose 10-25 µM
Mus musculus [9] = experiment: Immunomodulatory activity in OVA-sensitized asthmatic BALB/c mouse model assessed as inhibition of methacholine induced airway hyperreactivity by measuring pulmonary resistance at 20 microg/g, ip administered after day 14 OVA sensitization; assay type: functional; set-up: scale not given: the % may be the effect or the level left; details: dose 20 µg/g
[10] = molecular target: T1, Antigen-presenting glycoprotein CD1d1 (Mus musculus) (UniProt P11609); experiment: Activation of CD1d signaling in mouse iNKT hybridoma DN3A4-1.2 cells co-cultured with mouse A20 cells expressing CD1d assessed as IL-2 expression level at 10 to 25 uM incubated for 24 hrs by ELISA; assay type: cell-based; details: iNKT hybridoma DN3A4-1.2 cell, dose 10-25 µM
T1 sequence (whole entry): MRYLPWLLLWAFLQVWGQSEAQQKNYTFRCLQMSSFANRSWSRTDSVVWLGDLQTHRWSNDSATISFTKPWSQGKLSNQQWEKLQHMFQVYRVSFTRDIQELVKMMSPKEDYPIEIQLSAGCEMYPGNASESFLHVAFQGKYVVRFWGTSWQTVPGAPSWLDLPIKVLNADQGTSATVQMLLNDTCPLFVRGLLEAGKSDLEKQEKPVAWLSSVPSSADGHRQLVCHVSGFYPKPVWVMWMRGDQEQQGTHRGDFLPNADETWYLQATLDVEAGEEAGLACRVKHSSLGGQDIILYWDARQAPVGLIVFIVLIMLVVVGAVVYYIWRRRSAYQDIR

Mus musculus [11] = experiment: Immunomodulatory activity in OVA-sensitized asthmatic BALB/c mouse model assessed as reduction in IL-4 expression level in BALF at 20 microg/g, ip administered after day 14 OVA sensitization by ELISA; assay type: functional, organism-based; details: dose 20.0 µg/g
[12] = molecular target: Toll-like receptor 4 (Homo sapiens) (UniProt O00206); experiment: Activation of TLR4 signaling in human HEK293 cells assessed as IL-8 expression level at 10 to 25 uM incubated for 24 hrs by ELISA; assay type: cell-based; details: dose 10-25 µM
Mus musculus [13] = experiment: Immunostimulatory activity in C57BL/6JNarl mouse assessed as increase in IFN-gamma expression level in serum at 20 microg/g, ip and measured after 2 hrs by ELISA; assay type: functional, organism-based; details: dose 20.0 µg/g
[14] = molecular target: Toll-like receptor 2 (Homo sapiens) (UniProt O60603); experiment: Agonist activity at human TLR2 expressed in human HEK293 cells assessed as IL-8 expression level at 10 to 25 uM incubated for 24 hrs by ELISA; assay type: cell-based; details: dose 10-25 µM
[15] = molecular target: T1, Antigen-presenting glycoprotein CD1d1 (Mus musculus); experiment: Binding affinity to mouse CD1d in alpha-GalCer stimulated mouse iNKT hybridoma DN3A4-1.2 cells expressing co-cultured with mouse A20 cells expressing mouse CD1d assessed as inhibition of alpha-GlaCer activity by measuring IL-2 expression level at 10 to 25 uM incubated for 24 hrs by ELISA; assay type: cell-based; details: iNKT hybridoma DN3A4-1.2 cell, dose 10-25 µM
Mus musculus [16] = experiment: Immunostimulatory activity in C57BL/6JNarl mouse assessed as increase in IL-4 expression level in serum at 20 microg/g, ip and measured after 2 hrs by ELISA; assay type: functional, organism-based; details: dose 20.0 µg/g
PBMC [17] = experiment: Immunostimulatory activity in human PBMC cells assessed as increase in IL-6 expression level at 10 to 25 uM by ELISA; assay type: functional, cell-based; details: dose 10-25 µM
Splenocyte [18] = experiment: Immunostimulatory activity in wild-type C57BL/6JNarl mouse splenocytes assessed as increase in IL-6 expression level at 10 to 25 uM incubated for 48 hrs by ELISA; assay type: functional, cell-based; details: dose 10-25 µM
[19] = molecular target: Toll-like receptor 4 (Homo sapiens) (UniProt O00206); experiment: Agonist activity at human TLR4 expressed in human HEK293 cells co-expressing human MD-2 and CD14 assessed as IL-8 expression level at 10 to 25 uM incubated for 24 hrs by ELISA; assay type: cell-based; details: filed as agonist, dose 10-25 µM
Mus musculus [20] = experiment: Immunostimulatory activity in C57BL/6JNarl mouse assessed as increase in IL-4 expression level in serum at 20 microg/g, ip and measured after 18 hrs by ELISA; assay type: functional, organism-based; details: dose 20.0 µg/g
Mus musculus [21] = experiment: Anti-inflammatory activity in OVA-sensitized asthmatic BALB/c mouse model assessed as reduction in IL-13 expression level in lung at 20 microg/g, ip administered after day 14 OVA sensitization by ELISA; assay type: functional, organism-based; details: dose 20.0 µg/g
[22] = Induction of wild type C57BL/6JNarl mouse BMDC cells maturation assessed as increase in CD86 expression at 10 uM by flow cytometry (Rvb= 10.6%); assay type: functional
Mus musculus [23] = experiment: Immunostimulatory activity in C57BL/6JNarl mouse assessed as increase in IL-4 mRNA expression level in spleen at 20 microg/g, ip by RT-qPCR analysis; assay type: functional, organism-based; details: dose 20.0 µg/g
BMDC [24] = experiment: Induction of MyD88 knockout C57BL/6JNarl mouse BMDC cells maturation assessed as increase in IL-12p40 expression level at 10 to 50 uM by ELISA; assay type: functional, cell-based; details: dose 10-50 µM
[25] = Induction of MyD88 knockout C57BL/6JNarl mouse BMDC cells maturation assessed as increase in CD86 expression at 50 uM by flow cytometry (Rvb= 15%); assay type: functional
Mus musculus [26] = experiment: Immunostimulatory activity in C57BL/6JNarl mouse assessed as increase in Cd86 mRNA expression level in spleen at 20 microg/g, ip by RT-qPCR analysis; assay type: functional, organism-based; details: dose 20.0 µg/g
BMDC [27] = experiment: Induction of wild type C57BL/6JNarl mouse BMDC cells maturation assessed as increase in IL-12p40 expression level at 10 to 50 uM by ELISA; assay type: functional, cell-based; details: dose 10-50 µM
Mus musculus [28] = experiment: Anti-inflammatory activity in OVA-sensitized asthmatic BALB/c mouse model assessed as reduction in IL-13 expression level in BALF at 20 microg/g, ip administered after day 14 OVA sensitization by ELISA; assay type: functional, organism-based; details: dose 20.0 µg/g
[29] = Induction of wild type C57BL/6JNarl mouse BMDC cells maturation assessed as increase in CD86 expression at 50 uM by flow cytometry (Rvb= 10.6%); assay type: functional
Mus musculus [30] = experiment: Immuno-adjuvant activity in C57BL/6JNarl mouse […] with OT-1 mouse splenocytes assessed as fold increase in OVA-specific CD8+ T cell proliferation at 20 microg/g, ip in presence of OVA (257 to 264 residues) peptide treatment by flow cytometry relative to control; assay type: functional; details: dose 20 µg/g

Toll-like receptor 4 (Homo sapiens), sequence (O00206 whole entry): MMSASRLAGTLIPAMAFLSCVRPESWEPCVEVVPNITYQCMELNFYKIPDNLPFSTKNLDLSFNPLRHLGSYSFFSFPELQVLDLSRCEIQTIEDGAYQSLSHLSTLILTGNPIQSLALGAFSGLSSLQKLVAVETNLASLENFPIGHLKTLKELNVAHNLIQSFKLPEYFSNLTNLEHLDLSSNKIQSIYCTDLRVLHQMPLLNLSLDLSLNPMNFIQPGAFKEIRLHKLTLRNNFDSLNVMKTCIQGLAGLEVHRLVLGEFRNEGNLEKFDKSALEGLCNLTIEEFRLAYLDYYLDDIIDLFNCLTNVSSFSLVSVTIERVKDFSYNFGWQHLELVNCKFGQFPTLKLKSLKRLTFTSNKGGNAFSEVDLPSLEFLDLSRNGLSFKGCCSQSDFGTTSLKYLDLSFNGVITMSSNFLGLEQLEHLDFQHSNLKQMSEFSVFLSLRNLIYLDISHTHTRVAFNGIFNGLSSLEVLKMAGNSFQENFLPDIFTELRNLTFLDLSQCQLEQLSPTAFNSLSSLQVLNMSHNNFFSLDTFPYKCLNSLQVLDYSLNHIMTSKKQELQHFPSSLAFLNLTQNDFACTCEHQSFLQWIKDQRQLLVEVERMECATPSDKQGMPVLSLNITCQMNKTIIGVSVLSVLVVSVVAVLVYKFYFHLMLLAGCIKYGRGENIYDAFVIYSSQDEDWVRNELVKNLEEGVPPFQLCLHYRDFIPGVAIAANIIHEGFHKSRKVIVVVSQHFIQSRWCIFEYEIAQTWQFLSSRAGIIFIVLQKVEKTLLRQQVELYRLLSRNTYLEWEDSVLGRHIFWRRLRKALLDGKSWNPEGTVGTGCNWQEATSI
Toll-like receptor 2 (Homo sapiens), sequence (O60603 whole entry): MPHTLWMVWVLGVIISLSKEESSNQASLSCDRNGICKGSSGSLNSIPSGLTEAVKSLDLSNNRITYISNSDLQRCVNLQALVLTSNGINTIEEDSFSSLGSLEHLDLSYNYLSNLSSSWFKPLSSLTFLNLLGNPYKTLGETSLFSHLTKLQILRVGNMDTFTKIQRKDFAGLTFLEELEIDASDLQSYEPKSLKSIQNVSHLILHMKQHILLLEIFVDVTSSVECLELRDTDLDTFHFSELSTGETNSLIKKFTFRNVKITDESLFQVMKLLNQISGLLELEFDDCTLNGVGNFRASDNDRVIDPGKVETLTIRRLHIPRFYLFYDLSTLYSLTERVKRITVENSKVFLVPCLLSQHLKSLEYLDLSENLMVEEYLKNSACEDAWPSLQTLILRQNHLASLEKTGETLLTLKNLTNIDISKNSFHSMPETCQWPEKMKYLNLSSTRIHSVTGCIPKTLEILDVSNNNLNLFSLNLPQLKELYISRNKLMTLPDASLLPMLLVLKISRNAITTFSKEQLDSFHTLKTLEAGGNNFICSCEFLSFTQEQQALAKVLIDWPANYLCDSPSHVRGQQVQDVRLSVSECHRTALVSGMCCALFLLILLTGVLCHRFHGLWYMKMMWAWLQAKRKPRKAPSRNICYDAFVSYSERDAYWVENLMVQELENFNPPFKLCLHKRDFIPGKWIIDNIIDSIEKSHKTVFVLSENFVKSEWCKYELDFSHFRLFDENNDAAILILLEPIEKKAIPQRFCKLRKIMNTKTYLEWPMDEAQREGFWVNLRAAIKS

Activity [8] | Activity [10] | Activity [12] | Activity [14] | Activity [15] | Activity [19] | SMILES | Activity (Splenocyte [1]) | Activity (HEK293) | Activity (Splenocyte [2]) | Activity (Mus musculus [3]) | Activity (Splenocyte [4]) | Activity (Mus musculus [5]) | Activity (PBMC [6]) | Activity (Splenocyte [7]) | Activity (Mus musculus [9]) [%] | Activity (Mus musculus [11]) | Activity (Mus musculus [13]) | Activity (Mus musculus [16]) | Activity (PBMC [17]) | Activity (Splenocyte [18]) | also measured
inactive | inactive | inactive | inactive | inactive | Active | CCCCCCCCCCCCNC(=O)[C@H](CS[C@@H]1[C@H](O)[C@@H](O)[C@@H](O)[C@H]2COC(=O)N21)NC(=O)CCCCCCCCCCC | Non-Toxic | Non-Toxic | inactive | Active | inactive | Active | inactive | Active | 50 | Active | Active | Active | inactive | inactive | Activity (Mus musculus [20]): Active
inactive | inactive | inactive | inactive | inactive | Active | CCCCCCCCCCCCNC(=O)[C@H](CS[C@@H]1[C@H](O)[C@@H](O)[C@H](O)[C@H]2COC(=O)N21)NC(=O)CCCCCCCCCCC | Non-Toxic | Non-Toxic | inactive | Active | inactive | Active | inactive | Active | 50 | Active | Active | Active | inactive | inactive | Activity (Mus musculus [20]): Active
– | – | – | – | inactive | – | CCCCCCCCCCCNC(=O)[C@H](CO[C@H]1O[C@H](CO)[C@H](O)[C@H](O)[C@H]1O)NC(=O)CCCCCCCCCCC | – | – | inactive | – | inactive | – | – | Active | – | – | – | – | – | Active | –
inactive | inactive | inactive | inactive | inactive | Active | CCCCCCCCCCCCNC(=O)[C@H](CO[C@@H]1[C@H](O)[C@@H](O)[C@H](O)[C@H]2COC(=O)N21)NC(=O)CCCCCCCCCCC | Non-Toxic | Non-Toxic | inactive | Active | inactive | Active | Active | Active | 50 | Active | Active | Active | Active | Active | Activity (Mus musculus [21]): Active; Activity [22]: 25.8%; Activity (Mus musculus [23]): Active; Activity (BMDC [24]): inactive; Activity [25]: 23.8%; Activity (Mus musculus [26]): Active; Activity (BMDC [27]): Dose-Dependent Effect; Activity (Mus musculus [28]): Active; Activity [29]: 54.9%; Activity (Mus musculus [20]): Active; fold change (FC) (Mus musculus [30]): 5
inactive | inactive | inactive | inactive | inactive | Active | CCCCCCCCCCCCNC(=O)[C@H](CO[C@@H]1[C@H](O)[C@@H](O)[C@@H](O)[C@H]2COC(=O)N21)NC(=O)CCCCCCCCCCC | Non-Toxic | Non-Toxic | inactive | Active | inactive | Active | Active | Active | 50 | Active | Active | Active | Active | Active | Activity (Mus musculus [21]): Active; Activity (Mus musculus [28]): Active; Activity (Mus musculus [20]): Active; fold change (FC) (Mus musculus [30]): 10

— ChEMBL document CHEMBL5380832, “Serine-/Cysteine-Based sp2-Iminoglycolipids as Novel TLR4 Agonists: Evaluation of Their Adjuvancy and Immunotherapeutic Properties in a Murine Model of Asthma” (J Med Chem, 2023)
